Marks after values point to notes of the source that are not given here.
Legend:
[1] = target: E. coli D-3-phosphoglycerate dehydrogenase (PGDH), native enzyme (Escherichia coli, UniProt P0A9T0); experiment: Steady-state inhibition of enzymatic activity of native PGDH by L-serine; format: biochemical
W139F-E360W PGDH [2] = target: T1, W139F-E360W PGDH (Escherichia coli, UniProt P0A9T0, E360W/W139F); experiment: Steady-state inhibition of enzymatic activity of W139F-E360W PGDH by L-serine; format: biochemical, E. coli; conditions: W139F-E360W mutant
W139F-E360W PGDH [3] = target: T1, W139F-E360W PGDH; experiment: Steady-state serine binding by tryptophan fluorescence quenching titration; design: species or system E. coli; conditions: 2.5 μM enzyme subunits, fit to Hill equation (eq 11)
[4] = target: E. coli PGDH (native, free of bound NADH) (Escherichia coli, UniProt P0A9T0); experiment: Pre-steady-state stopped-flow analysis of NADH binding; conditions: saturating L-serine versus serine absent
W139F-E360W PGDH [5] = target: T1, W139F-E360W PGDH; experiment: Stopped-flow transient kinetics of L-serine binding; design: species or system E. coli; conditions: for k3: estimated from Figure 9; for k2: forward rate constant of conformational change after binding; for k−3: reverse rate constant of conformational change before binding

Structure (SMILES): N[C@@H](CO)C(=O)O [L-serine]
- Hill coefficient for inhibition of enzymatic activity [1]: 1.9 ± 0.1
- Hill coefficient for inhibition of enzymatic activity (W139F-E360W PGDH [2]): 2.2 ± 0.1
- K0.5 for fluorescence quenching (W139F-E360W PGDH [3]): 13.6 ± 0.5
- Increase in the Kd for NADH binding caused by serine, first set of sites [4]: 15 fold
- Increase in the Kd for NADH binding caused by serine, other set of sites [4]: 5 fold
- k3 (W139F-E360W PGDH [5]; kobs1, printed >0–20): (>0–20 s^−1) ^b
- k2 (W139F-E360W PGDH [5]; kobs1): 61 ± 4 s⁻¹
- k−3 (W139F-E360W PGDH [5]; kobs1): 88 ± 7 s⁻¹
- k3 (W139F-E360W PGDH [5]; kobs2, printed >0–2): (>0–2 s^−1) ^b
- k2 (W139F-E360W PGDH [5]; kobs2): 161 ± 18 s⁻¹
- k−3 (W139F-E360W PGDH [5]; kobs2): 166 ± 22 s⁻¹

Source: publication PMC2797576 (Biochemistry, 2009)
